From patent publication US9346798B2, “Dihydrobenzoxazine and tetrahydroquinoxaline sodium channel inhibitors” (AMGEN INC., priority 2012, dated 2016) come the findings set out here.

A value given as a limit tells only on which side of the number the result lay.

What all share (assay type): cell-based
Series [1] addresses T1, Nav 1.7 (Homo sapiens (Human), UniProt Q15858). Briefly: Nav 1.7 in vitro PX assay, PatchXpress whole cell voltage clamp. The following applies: HEK 293 cells stably transfected with human Nav1.7; partially inactivated state (20 to 50% inactivation). The procedure:
Nav 1.7 In Vitro PX Assay
HEK 293 cells stably transfected with human Nav1.7 were recorded in whole cell voltage clamp mode with the PatchXpress automated electrophysiology system (Molecular Devices, LLC, Sunnyvale, Calif.). Compound effects were measured on a partially inactivated state of the sodium channel. Cells were clamped to a holding potential yielding 20 to 50% inactivation. To elicit sodium current, channels were activated by pulsing to −10 mV for 20 msec. This voltage protocol was repeated at a rate of 0.1 Hz throughout the experiment. A single concentration of test compound was applied to cells for a duration of 3 minutes. Peak sodium current was measured at the end of the compound addition period to determine percent inhibition. Three to five cells were tested per concentration, and IC50 curves were fitted to percent inhibition as a function of concentration.

Series [2] has as its target T1, Nav 1.7. Briefly: Nav 1.7 in vitro assay, IonWorks Quattro (IWQ) population patch-clamp. The following applies: HEK 293 cells stably transfected with Nav 1.7; for IC50: 26th pulse to -20 mV; for inhibition at 4.9 µM: HEK293, values marked *, read-out: Nav 1.7 IWQ percent inhibition at 4.9 μM. The procedure:
(§1) Nav 1.7 and Nav 1.5 In Vitro Assays
(§2) HEK 293 cells stably transfected with either Nav 1.7 or with Nav 1.5 were recorded in population patch-clamp mode with the IonWorks® Quattro automated electrophysiology system in accordance with the manufacturer's specifications (Molecular Devices, LLC, Sunnyvale, Calif.). Sodium channel currents were measured in response to a train of depolarizations that induced successively greater inactivation.
(§3) Cells were held at −110 mV for three seconds (Nav 1.7) or half a second (Nav 1.5) from a holding voltage of −15 mV, then put through a series of 26 pulses of 150 msec duration to −20 mV at a frequency of 5 Hz. Cells were then left unclamped for a period of 3 to 8 minutes while a single concentration of test compound was added. Cells were then reclamped and put through the same voltage protocol. Current at the end of the 26th pulse to −20 mV was subtracted from the peak current evoked by the 26th pulse to −20 mV to correct for leak current. Percent block was calculated for each concentration in duplicate, and IC50 curves were fitted to percent block as a function of concentration.

The target of series [3] is Nav 1.5 (Homo sapiens (Human), UniProt Q14524). Kind of series: Nav 1.5 in vitro assay, IonWorks Quattro (IWQ) population patch-clamp. The following applies: HEK 293 cells stably transfected with Nav 1.5; 26th pulse to -20 mV. As for the experimental part: as §1, §2, §3
Nav 1.5, sequence (Q14524 whole entry): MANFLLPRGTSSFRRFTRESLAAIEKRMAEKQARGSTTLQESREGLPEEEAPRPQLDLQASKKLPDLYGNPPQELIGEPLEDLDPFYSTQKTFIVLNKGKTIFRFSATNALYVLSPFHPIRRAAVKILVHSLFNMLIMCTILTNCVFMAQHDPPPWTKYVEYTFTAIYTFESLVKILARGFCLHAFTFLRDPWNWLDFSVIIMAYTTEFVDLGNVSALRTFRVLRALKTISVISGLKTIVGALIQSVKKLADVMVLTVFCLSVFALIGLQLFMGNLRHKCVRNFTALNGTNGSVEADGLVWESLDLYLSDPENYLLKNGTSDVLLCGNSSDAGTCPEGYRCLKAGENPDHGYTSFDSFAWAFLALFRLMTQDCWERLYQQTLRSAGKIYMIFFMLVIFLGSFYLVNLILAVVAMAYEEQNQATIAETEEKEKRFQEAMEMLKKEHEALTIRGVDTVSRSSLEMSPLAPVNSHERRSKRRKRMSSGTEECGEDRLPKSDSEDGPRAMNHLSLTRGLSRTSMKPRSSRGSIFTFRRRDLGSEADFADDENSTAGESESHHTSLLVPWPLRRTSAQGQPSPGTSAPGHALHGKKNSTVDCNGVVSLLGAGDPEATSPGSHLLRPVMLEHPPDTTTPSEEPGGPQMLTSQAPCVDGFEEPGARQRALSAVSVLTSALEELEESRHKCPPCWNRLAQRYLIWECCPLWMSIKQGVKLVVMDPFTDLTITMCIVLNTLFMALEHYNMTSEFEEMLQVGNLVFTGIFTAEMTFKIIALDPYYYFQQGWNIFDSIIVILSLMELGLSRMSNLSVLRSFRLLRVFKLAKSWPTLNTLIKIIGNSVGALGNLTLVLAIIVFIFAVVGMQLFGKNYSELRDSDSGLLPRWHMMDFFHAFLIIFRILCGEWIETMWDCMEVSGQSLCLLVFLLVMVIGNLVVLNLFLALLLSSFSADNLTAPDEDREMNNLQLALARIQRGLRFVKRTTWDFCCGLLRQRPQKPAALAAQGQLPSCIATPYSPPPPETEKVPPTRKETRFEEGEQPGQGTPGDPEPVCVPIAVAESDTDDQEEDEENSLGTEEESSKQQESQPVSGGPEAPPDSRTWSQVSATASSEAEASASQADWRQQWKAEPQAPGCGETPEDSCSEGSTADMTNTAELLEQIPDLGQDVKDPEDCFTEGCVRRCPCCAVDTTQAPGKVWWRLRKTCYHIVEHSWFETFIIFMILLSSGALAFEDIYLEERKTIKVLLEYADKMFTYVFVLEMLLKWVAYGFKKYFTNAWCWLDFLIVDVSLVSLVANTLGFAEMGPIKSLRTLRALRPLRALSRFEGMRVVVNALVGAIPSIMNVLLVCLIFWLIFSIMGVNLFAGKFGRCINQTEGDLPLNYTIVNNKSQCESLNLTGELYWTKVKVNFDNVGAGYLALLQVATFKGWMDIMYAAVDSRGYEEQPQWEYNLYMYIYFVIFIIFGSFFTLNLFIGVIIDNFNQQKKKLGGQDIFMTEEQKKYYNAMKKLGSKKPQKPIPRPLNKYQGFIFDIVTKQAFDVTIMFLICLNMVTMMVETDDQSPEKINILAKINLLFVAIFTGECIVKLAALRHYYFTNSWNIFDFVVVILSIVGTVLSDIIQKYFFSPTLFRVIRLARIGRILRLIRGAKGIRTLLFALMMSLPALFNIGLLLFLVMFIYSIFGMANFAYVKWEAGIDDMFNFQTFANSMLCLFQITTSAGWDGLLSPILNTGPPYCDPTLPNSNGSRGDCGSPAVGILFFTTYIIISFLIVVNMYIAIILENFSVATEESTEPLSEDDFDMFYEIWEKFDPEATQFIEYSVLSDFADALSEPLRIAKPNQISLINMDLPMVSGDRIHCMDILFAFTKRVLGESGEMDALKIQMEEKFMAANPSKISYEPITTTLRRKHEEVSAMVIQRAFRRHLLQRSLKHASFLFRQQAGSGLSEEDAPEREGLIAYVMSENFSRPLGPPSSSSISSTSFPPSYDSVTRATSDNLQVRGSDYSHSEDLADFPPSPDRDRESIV

T1 sequence (Q15858 whole entry): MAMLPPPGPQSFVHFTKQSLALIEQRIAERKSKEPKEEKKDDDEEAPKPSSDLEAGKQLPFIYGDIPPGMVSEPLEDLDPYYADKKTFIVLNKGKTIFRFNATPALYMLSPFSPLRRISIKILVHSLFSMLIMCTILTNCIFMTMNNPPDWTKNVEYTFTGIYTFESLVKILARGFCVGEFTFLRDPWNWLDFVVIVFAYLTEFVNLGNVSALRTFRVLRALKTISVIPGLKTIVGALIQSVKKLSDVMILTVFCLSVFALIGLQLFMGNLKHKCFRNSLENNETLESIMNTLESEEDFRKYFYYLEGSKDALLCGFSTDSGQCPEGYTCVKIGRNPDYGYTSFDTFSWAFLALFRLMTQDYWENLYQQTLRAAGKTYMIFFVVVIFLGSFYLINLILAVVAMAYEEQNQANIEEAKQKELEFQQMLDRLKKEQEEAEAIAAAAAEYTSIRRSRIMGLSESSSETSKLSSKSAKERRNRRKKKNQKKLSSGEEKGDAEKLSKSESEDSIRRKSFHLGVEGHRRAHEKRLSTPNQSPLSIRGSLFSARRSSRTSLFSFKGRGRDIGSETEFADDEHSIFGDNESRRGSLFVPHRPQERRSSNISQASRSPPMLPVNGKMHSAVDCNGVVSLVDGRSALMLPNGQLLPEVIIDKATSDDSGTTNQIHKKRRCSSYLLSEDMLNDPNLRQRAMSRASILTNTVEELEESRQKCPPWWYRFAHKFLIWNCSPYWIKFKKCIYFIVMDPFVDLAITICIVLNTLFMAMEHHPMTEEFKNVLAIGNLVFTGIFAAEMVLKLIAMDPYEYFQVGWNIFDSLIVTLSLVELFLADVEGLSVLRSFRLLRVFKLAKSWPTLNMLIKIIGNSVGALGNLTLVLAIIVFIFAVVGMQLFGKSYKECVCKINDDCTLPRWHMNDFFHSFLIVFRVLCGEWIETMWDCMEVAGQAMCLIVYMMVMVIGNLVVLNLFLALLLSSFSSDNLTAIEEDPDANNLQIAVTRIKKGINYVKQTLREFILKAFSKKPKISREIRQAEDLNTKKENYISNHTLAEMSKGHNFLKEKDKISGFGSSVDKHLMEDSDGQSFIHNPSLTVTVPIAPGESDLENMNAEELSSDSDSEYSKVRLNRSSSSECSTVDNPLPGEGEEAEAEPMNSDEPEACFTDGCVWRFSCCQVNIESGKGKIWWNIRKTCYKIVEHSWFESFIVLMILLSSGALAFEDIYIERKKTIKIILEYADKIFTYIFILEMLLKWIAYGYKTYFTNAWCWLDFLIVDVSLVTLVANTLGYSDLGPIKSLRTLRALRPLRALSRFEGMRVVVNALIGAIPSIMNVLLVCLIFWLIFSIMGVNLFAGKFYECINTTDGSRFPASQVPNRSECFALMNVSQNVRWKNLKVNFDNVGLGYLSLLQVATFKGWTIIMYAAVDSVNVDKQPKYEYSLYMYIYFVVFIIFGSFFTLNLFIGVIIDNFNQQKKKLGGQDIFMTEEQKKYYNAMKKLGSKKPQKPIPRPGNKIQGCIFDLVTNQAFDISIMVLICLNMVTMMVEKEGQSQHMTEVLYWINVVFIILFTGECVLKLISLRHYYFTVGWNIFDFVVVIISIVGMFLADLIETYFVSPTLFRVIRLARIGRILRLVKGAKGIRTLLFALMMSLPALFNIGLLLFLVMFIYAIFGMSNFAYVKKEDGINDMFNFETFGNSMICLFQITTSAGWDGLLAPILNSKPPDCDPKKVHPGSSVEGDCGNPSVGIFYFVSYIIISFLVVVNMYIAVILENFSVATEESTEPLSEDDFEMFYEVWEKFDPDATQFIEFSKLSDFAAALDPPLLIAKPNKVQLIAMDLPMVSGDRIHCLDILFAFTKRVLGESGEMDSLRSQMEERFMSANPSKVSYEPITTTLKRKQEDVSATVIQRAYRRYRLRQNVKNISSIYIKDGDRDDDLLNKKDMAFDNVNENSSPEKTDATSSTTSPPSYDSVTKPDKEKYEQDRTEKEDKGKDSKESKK

For `CC1CN(c2ccc(C(F)(F)F)cc2C#N)c2ccc(S(=O)(=O)Nc3nccs3)cc2O1` (racemic) [Example 93, 4-(2-Cyano-4-(Trifluoromethyl)Phenyl)-2-Methyl-N-(Thiazol-2-Yl)-3,4-Dihydro-2H-Benzo[B][1,4]Oxazine-7-Sulfonamide], the figures for the IC50 in series [1], in series [2] and in series [3] were 566 nM, 78.5 nM and 1840 nM, respectively.
In the case of `CC1COc2cc(S(=O)(=O)Nc3nccs3)ccc2N1c1ccc(C(F)(F)F)cc1C#N` (racemic) [Example 96, 4-(2-Cyano-4-(Trifluoromethyl)Phenyl)-3-Methyl-N-(Thiazol-2-Yl)-3,4-Dihydro-2H-Benzo[B][1,4]Oxazine-7-Sulfonamide], the IC50 in series [1] came out at 1890 nM; in series [2] it was 823 nM; in series [3], 1400 nM.
In the case of `CCC1CN(c2ccc(C(F)(F)F)cc2C#N)c2ccc(S(=O)(=O)Nc3nccs3)cc2O1` (racemic) [Example 100, 4-(2-Cyano-4-(Trifluoromethyl)Phenyl)-2-Ethyl-N-(Thiazol-2-Yl)-3,4-Dihydro-2H-Benzo[B][1,4]Oxazine-7-Sulfonamide], the IC50 in series [1] is 5790 nM; in series [2] it was 679 nM; in series [3], more than 10000 nM.
Regarding `COc1cc(Cl)ccc1N1CC(C)Oc2cc(S(=O)(=O)Nc3nccs3)ccc21` (racemic) [Example 103, 4-(4-Chloro-2-Methoxyphenyl)-2-Methyl-N-(Thiazol-2-Yl)-3,4-Dihydro-2H-Benzo[B][1,4]Oxazine-7-Sulfonamide], the IC50 turned out to be 422 nM in series [1], 40 nM in series [2] and 9590 nM in series [3].
The corresponding values for `COc1cc(C#N)ccc1N1CC(C)Oc2cc(S(=O)(=O)Nc3nccs3)ccc21` (racemic) [Example 106, 4-(4-cyano-2-methoxyphenyl)-2-methyl-N-(thiazol-2-yl)-3,4-dihydro-2H-benzo[b][1,4]oxazine-7-sulfonamide] are 288 nM, 42.5 nM and more than 10000 nM.
`O=S(=O)(Nc1nccs1)c1ccc2c(c1)OCCN2c1ccc(C(F)(F)F)cc1CC(O)CO` (racemic) [Example 207, 4-(2-(2,3-Dihydroxypropyl)-4-(Trifluoromethyl)Phenyl)-N-(Thiazol-2-Yl)-3,4-Dihydro-2H-Benzo[B][1,4]Oxazine-7-Sulfonamide]: the IC50 was 86.7 nM in series [1], 25 nM in series [2] and 3110 nM in series [3].
Take `C[C@H]1CN(c2ccc(C(F)(F)F)cc2C#N)c2ccc(S(=O)(=O)Nc3nccs3)cc2O1` (single isomer, unassigned) [Example 94]: the IC50 turned out to be 149 nM in series [1], 8.5 nM in series [2] and 724 nM in series [3].
`C[C@@H]1CN(c2ccc(C(F)(F)F)cc2C#N)c2ccc(S(=O)(=O)Nc3nccs3)cc2O1` (single isomer, unassigned) [Example 95]: the IC50 in series [1] amounted to 293 nM; in series [2] it was 70.5 nM; in series [3], 6670 nM.
Regarding `C[C@@H]1COc2cc(S(=O)(=O)Nc3nccs3)ccc2N1c1ccc(C(F)(F)F)cc1C#N` (single isomer, unassigned) [Example 97], the IC50 came out at 772 nM in series [1], 208 nM in series [2] and 851 nM in series [3].
The corresponding values for `C[C@H]1COc2cc(S(=O)(=O)Nc3nccs3)ccc2N1c1ccc(C(F)(F)F)cc1C#N` (single isomer, unassigned) [Example 98] are 3430 nM, 996 nM and more than 10000 nM.
Taken in the same sequence, the figures for `CC[C@H]1CN(c2ccc(C(F)(F)F)cc2C#N)c2ccc(S(=O)(=O)Nc3nccs3)cc2O1` (single isomer, unassigned) [Example 101] were 3630 nM, 367 nM and 8500 nM.
Taken in the same sequence, the figures for `CCC1CN(c2ccc(C(F)(F)F)cc2C#N)c2ccc(S(=O)(=O)Nc3nccs3)cc2O1` (single isomer, unassigned) [Example 102] were 8890 nM, 1390 nM and more than 10000 nM.
Regarding `COc1cc(Cl)ccc1N1C[C@H](C)Oc2cc(S(=O)(=O)Nc3nccs3)ccc21` (single isomer, unassigned) [Example 104], the IC50 in series [1] was 657 nM; in series [2] it was 110 nM; in series [3], more than 10000 nM.
For `COc1cc(Cl)ccc1N1C[C@@H](C)Oc2cc(S(=O)(=O)Nc3nccs3)ccc21` (single isomer, unassigned) [Example 105], the IC50 in series [1] is 894 nM; in series [2], 53.5 nM; in series [3] it was more than 10000 nM.
`Cc1cnc(NS(=O)(=O)c2ccc3c(c2)OCCN3c2ccc(C(F)(F)F)cc2Cl)s1` [Example 12, 4-(2-Chloro-4-(Trifluoromethyl)Phenyl)-N-(5-Methylthiazol-2-Yl)-3,4-Dihydro-2H-Benzo[B][1,4]Oxazine-7-Sulfonamide]: the inhibition at 4.9 µM in series [2] is 24.5%. In series [3], this compound came in with an IC50 of more than 10000 nM.
Turning to `CN(C)CCn1ccc(NS(=O)(=O)c2ccc3c(c2)OCCN3c2ccc(C(F)(F)F)cc2Cl)n1` [Example 14, 4-(2-Chloro-4-(Trifluoromethyl)Phenyl)-N-(1-(2-(Dimethylamino)Ethyl)-1H-Pyrazol-3-Yl)-3,4-Dihydro-2H-Benzo[B][1,4]Oxazine-7-Sulfonamide 2,2,2-Trifluoroacetate], the IC50 worked out at 9310 nM in series [2] and 8250 nM in series [3].
As to `Cn1ccc(NS(=O)(=O)c2ccc3c(c2)OCCN3c2ccc(C(F)(F)F)cc2Cl)n1` [Example 15, 4-(2-Chloro-4-(Trifluoromethyl)Phenyl)-N-(1-Methyl-1H-Pyrazol-3-Yl)-3,4-Dihydro-2H-Benzo[B][1,4]Oxazine-7-Sulfonamide], the IC50 in series [2] is 6110 nM; in series [3], more than 10000 nM.
With `O=S(=O)(Nc1nccs1)c1ccc2c(c1)OCCN2c1ccc(Cl)cc1C1=CCNCC1` [Example 52, 4-(4-Chloro-2-(1,2,3,6-Tetrahydropyridin-4-Yl)Phenyl)-N-(Thiazol-2-Yl)-3,4-Dihydro-2H-Benzo[B][1,4]Oxazine-7-Sulfonamide 2,2,2-Trifluoroacetate], the figures for the IC50 in series [1] and in series [2] were 35.5 nM and 4.5 nM, respectively.
Regarding `Cc1ccc2cnccc2c1N1CCOc2cc(S(=O)(=O)Nc3nccs3)ccc21` [Example 73, 4-(6-Methylisoquinolin-5-Yl)-N-(Thiazol-2-Yl)-3,4-Dihydro-2H-Benzo[B][1,4]Oxazine-7-Sulfonamide 2,2,2-Trifluoroacetate], the values for the half-maximal inhibitory concentration (IC50) in series [2] and in series [3] were 7580 nM and more than 10000 nM, respectively.
Consider `O=S(=O)(Nc1cncs1)c1ccc2c(c1)OCCN2c1ccc(C(F)(F)F)cc1C1=CCNCC1` [Example 85, 4-(2-(1,2,3,6-Tetrahydropyridin-4-Yl)-4-(Trifluoromethyl)Phenyl)-N-(Thiazol-5-Yl)-3,4-Dihydro-2H-Benzo[B][1,4]Oxazine-7-Sulfonamide 2,2,2-Trifluoroacetate], for which the inhibition at 4.9 µM in series [2] amounted to 41.1%. Besides, the IC50 in series [3] is more than 10000 nM.
Taken in the same sequence, the figures for `O=C1COc2cc(S(=O)(=O)Nc3nncs3)ccc2N1c1cccc(Cl)c1` [Example 92, 4-(3-Chlorophenyl)-3-Oxo-N-(1,3,4-Thiadiazol-2-Yl)-3,4-Dihydro-2H-Benzo[B][1,4]Oxazine-7-Sulfonamide] were 26.4% and more than 10000 nM.
As for `N#Cc1cncc(N2CCOc3cc(S(=O)(=O)Nc4nccs4)ccc32)c1` [Example 117, 4-(5-Cyanopyridin-3-yl)-N-(thiazol-2-yl)-3,4-dihydro-2H-benzo[b][1,4]oxazine-7-sulfonamide], the results for the IC50 in series [2] and in series [3] were 2140 nM and more than 10000 nM, respectively.
For `COc1ccc(N2CCOc3cc(S(=O)(=O)Nc4nccs4)ccc32)cc1OC` [Example 119, 4-(3,4-Dimethoxyphenyl)-N-(thiazol-2-yl)-3,4-dihydro-2H-benzo[b][1,4]oxazine-7-sulfonamide], the IC50 in series [2] is 2530 nM; in series [3], more than 10000 nM.
Turning to `Cc1ccc(N2CCOc3cc(S(=O)(=O)Nc4nccs4)ccc32)c(C)n1` [Example 132, 4-(2,6-Dimethylpyridin-3-yl)-N-(thiazol-2-yl)-3,4-dihydro-2H-benzo[b][1,4]oxazine-7-sulfonamide], the IC50 in series [2] is 3560 nM; in series [3] it was more than 10000 nM.
For the compound `CCN(CC)C(=O)CN1CCOc2cc(S(=O)(=O)Nc3nccs3)ccc21` [Example 228, N,N-Diethyl-2-(7-(N-(Thiazol-2-Yl)Sulfamoyl)-2H-Benzo[B][1,4]Oxazin-4(3 H)-Yl)Acetamide], in series [2], the inhibition at 4.9 µM worked out at 20%. Besides, the IC50 in series [3] is more than 10000 nM.
